What was measured:
[1] = target: human sodium channel Nav 1.8 (Homo sapiens (Human), UniProt Q9Y5Y9); assay: Automated whole-cell voltage-clamp (ScreenPatch 384P), Nav 1.8 sodium current, Protocol 2; type: cell-based; conditions: read-out: Nav1.8 IC50
Procedure, shortened: (§1)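 Peak TP1A sodium current block, scaled between DMSO vehicle and positive control, was fitted with a Hill equation to give IC50 at eight compound concentrations (≥5 min, room temperature) in stable CHO lines. Protocol 2 (0.05 Hz) used an 8 s −40 mV inactivating prepulse from −100 mV; Protocol 1 (0.1 Hz) held at −90 mV; test steps 10 mV for Nav1.8, 0 mV for Nav1.7.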

[2] = target: human sodium channel Nav 1.7 (Homo sapiens (Human), UniProt Q15858); assay: Automated whole-cell voltage-clamp (ScreenPatch 384P), Nav 1.7 sodium current, Protocol 2; type: cell-based; conditions: read-out: Nav1.7 IC50
Chain of human sodium channel Nav 1.7 (Q15858 whole entry): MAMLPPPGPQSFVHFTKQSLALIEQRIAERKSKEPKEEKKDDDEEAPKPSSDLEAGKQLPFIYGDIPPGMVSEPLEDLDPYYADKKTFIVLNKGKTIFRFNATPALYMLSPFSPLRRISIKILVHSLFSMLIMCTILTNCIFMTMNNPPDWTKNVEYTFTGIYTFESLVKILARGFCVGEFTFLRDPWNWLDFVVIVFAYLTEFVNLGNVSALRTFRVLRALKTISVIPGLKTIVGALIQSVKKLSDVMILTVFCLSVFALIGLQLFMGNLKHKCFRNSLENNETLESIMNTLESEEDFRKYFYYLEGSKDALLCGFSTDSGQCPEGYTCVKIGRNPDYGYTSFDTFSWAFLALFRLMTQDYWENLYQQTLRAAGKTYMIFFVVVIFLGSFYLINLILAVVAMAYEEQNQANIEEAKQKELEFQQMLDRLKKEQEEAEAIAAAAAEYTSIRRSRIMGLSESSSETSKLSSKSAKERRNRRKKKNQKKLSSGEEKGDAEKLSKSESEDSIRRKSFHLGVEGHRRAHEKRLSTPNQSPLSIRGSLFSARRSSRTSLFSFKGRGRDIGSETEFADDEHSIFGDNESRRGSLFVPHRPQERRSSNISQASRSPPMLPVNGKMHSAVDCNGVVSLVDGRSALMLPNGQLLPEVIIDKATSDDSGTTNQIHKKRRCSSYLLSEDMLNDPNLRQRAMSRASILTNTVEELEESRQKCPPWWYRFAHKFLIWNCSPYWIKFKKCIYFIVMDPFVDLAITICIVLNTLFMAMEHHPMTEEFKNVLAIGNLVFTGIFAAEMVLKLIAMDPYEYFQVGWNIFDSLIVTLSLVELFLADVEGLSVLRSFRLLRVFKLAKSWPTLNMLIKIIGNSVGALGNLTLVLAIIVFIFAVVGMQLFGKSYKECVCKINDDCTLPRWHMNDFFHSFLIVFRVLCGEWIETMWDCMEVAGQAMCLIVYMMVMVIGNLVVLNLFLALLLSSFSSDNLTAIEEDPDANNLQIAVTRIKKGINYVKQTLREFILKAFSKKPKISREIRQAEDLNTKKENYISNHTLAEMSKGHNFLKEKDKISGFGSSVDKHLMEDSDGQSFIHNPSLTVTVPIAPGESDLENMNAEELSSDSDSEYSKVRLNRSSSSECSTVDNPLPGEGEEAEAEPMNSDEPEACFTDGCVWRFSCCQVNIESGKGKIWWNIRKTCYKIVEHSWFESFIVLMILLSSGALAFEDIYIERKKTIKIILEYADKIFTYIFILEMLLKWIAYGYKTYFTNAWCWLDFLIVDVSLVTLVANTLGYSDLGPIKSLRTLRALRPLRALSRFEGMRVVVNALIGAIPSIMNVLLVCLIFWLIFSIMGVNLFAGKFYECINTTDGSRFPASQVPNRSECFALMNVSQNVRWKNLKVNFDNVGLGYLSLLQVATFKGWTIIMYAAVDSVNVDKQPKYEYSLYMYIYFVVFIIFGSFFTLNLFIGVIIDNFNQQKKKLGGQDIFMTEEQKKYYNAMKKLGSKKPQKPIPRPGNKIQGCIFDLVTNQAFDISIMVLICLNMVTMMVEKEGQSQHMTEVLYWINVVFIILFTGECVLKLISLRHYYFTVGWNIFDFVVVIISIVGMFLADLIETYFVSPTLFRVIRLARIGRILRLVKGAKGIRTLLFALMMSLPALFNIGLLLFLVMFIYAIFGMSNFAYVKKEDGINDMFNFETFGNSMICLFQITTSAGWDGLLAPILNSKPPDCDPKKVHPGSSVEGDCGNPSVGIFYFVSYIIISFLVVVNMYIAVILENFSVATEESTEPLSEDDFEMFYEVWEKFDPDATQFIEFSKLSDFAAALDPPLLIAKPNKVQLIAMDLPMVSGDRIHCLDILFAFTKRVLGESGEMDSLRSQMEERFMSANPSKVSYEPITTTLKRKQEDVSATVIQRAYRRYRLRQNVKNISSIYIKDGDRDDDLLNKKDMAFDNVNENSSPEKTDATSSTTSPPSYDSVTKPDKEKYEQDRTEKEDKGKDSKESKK
Procedure, shortened: as §1

Chain of human sodium channel Nav 1.8 (Q9Y5Y9 whole entry): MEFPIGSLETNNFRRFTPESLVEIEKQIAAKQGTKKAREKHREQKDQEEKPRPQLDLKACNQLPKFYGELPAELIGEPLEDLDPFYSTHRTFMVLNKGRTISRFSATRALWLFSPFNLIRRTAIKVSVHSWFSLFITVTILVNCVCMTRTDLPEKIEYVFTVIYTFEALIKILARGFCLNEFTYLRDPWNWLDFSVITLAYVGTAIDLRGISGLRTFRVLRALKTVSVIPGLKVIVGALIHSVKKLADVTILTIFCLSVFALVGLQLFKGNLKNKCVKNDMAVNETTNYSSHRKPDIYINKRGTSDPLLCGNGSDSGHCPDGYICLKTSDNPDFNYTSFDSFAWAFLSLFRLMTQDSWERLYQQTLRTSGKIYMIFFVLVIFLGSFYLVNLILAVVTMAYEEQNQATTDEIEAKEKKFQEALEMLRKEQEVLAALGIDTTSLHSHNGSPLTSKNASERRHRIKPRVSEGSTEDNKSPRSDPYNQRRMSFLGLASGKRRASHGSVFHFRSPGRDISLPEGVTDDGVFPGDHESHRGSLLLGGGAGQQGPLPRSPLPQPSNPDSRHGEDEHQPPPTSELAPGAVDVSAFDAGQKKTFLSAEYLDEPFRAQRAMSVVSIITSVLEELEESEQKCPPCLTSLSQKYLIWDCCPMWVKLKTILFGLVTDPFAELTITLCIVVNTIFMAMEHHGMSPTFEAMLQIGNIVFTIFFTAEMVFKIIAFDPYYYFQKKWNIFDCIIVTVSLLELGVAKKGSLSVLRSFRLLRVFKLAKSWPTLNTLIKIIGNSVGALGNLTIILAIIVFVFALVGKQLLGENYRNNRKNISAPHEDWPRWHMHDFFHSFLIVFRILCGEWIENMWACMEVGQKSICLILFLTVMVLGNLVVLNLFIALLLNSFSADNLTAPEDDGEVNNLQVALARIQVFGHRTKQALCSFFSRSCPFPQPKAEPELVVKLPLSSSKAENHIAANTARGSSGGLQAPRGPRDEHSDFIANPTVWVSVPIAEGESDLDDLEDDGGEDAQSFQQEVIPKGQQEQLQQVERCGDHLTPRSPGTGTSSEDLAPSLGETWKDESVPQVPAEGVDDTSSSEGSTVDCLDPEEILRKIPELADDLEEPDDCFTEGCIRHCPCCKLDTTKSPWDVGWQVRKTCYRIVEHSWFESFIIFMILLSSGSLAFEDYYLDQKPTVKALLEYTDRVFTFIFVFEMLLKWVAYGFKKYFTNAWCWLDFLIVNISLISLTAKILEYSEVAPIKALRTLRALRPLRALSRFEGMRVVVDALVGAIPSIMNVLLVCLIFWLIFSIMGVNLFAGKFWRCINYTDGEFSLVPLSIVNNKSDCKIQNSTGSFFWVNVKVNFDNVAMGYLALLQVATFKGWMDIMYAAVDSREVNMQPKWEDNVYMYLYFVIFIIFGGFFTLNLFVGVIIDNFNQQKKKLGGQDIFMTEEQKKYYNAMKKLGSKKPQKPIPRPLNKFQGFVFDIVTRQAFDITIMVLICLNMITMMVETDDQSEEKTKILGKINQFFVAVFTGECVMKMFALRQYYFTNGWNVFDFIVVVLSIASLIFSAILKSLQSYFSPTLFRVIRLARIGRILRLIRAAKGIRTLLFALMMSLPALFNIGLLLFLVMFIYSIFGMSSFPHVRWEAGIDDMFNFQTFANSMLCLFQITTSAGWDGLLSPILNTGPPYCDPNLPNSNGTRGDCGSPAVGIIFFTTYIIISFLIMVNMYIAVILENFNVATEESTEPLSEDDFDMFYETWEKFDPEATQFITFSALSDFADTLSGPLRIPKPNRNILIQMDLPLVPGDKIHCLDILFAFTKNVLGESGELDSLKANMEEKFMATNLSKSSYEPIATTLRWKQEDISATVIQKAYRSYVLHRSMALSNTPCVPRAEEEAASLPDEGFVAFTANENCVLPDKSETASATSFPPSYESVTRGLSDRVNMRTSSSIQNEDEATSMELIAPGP

Row | Compound | IC50 [1] | IC50 [2]
1 | COc1cc(/C=N/NC(=O)c2cncc(-c3ccc(OC)cc3C(F)(F)F)n2)cc(OC)c1 [Compound 123, (E)-N′-(3,5-dimethoxybenzylidene)-6-(4-methoxy-2-(trifluromethoxy)phenyl)pyrazine-2-carbohydrazide] | 803 nM | 49.2 nM
2 | COc1cc(/C=N/NC(=O)c2cncc(-c3ccc(OC)cc3OC)n2)cc(OC)c1 [Compound 124, (E)-N′-(3,5-dimethoxybenzylidene)-6-(2,4-dimethoxyphenyl)pyrazine-2-carbohydrazide] | 73.2 nM | 181 nM
3 | COc1cc(/C=N/NC(=O)c2cncc(-c3ccccn3)n2)cc(OC)c1 [Compound 125, (E)-N′-(3,5-dimethoxybenzylidene)-6-(pyridin-2-yl)pyrazine-2-carbohydrazide] | > 1000 nM | > 10000 nM
4 | COc1cc(/C=N/NC(=O)c2cncc(N3CCOCC3)n2)cc(OC)c1 [Compound 126, (E)-N′-(3,5-dimethoxybenzylidene)-6-morpholinopyrazine-2-carbohydrazide] | > 1000 nM | > 10000 nM
5 | COc1cc(/C=N/NC(=O)c2cncc(N3CCCCC3)n2)cc(OC)c1 [Compound 127, (E)-N′-(3,5-dimethoxybenzylidene)-6-(piperidin-1-yl)pyrazine-2-carbohydrazide] | > 1000 nM | > 10000 nM
6 | CCCN1CCN(c2cncc(C(=O)N/N=C/c3cc(OC)cc(OC)c3)n2)CC1 [Compound 128, (E)-N′-(3,5-dimethoxybenzylidene)-6-(4-propylpiperazin-1-yl)pyrazine-2-carbohydrazide] | > 1000 nM | > 10000 nM
7 | COc1ccc(Oc2cnc(C(=O)N/N=C/c3cc(OC)cc(OC)c3)cn2)cc1 [Compound 130] | > 1000 nM | > 10000 nM
8 | CCc1nccnc1C(=O)N/N=C/c1cc(OC)cc(OC)c1 [Compound 132, (E)-N′-(3,5-dimethoxybenzylidene)-3-ethylpyrazine-2-carbohydrazide] | > 1000 nM | > 10000 nM
9 | CCc1cncc(C(=O)N/N=C/c2cc(OC)cc(OC)c2)n1 [Compound 133, (E)-N′-(3,5-dimethoxybenzylidene)-6-ethylpyrazine-2-carbohydrazide] | 913 nM | > 10000 nM
10 | COc1cc(/C=N/NC(=O)c2cncc(C(C)C)n2)cc(OC)c1 [Compound 134, (E)-N′-(3,5-dimethoxybenzylidene)-6-isopropylpyrazine-2-carbohydrazide] | > 1000 nM | > 10000 nM
11 | COc1cc(/C=N/NC(=O)c2nccnc2C(C)C)cc(OC)c1 [Compound 135, (E)-N′-(3,5-dimethoxybenzylidene)-3-isopropylpyrazine-2-carbohydrazide] | > 1000 nM | > 10000 nM
12 | COc1cc(/C=N/NC(=O)c2cnc(C(C)C)cn2)cc(OC)c1 [Compound 136, (E)-N′-(3,5-dimethoxybenzylidene)-5-isopropylpyrazine-2-carbohydrazide] | > 1000 nM | > 10000 nM
13 | COc1cc(/C=N/NC(=O)c2cncc(C)n2)cc(OC)c1 [Compound 137, (E)-N′-(3,5-dimethoxybenzylidene)-6-methylpyrazine-2-carbohydrazide] | > 1000 nM | > 10000 nM
14 | COc1cc(/C=N/NC(=O)c2cnc(C)cn2)cc(OC)c1 [Compound 138, (E)-N′-(3,5-dimethoxybenzylidene)-5-methylpyrazine-2-carbohydrazide] | > 1000 nM | > 10000 nM
15 | COc1cc(/C=N/NC(=O)c2nccnc2C)cc(OC)c1 [Compound 139, (E)-N′-(3,5-dimethoxybenzylidene)-3-methylpyrazine-2-carbohydrazide] | > 1000 nM | > 10000 nM
16 | COc1cc(/C=N/NC(=O)c2cncc(OC)n2)cc(OC)c1 [Compound 140, (E)-N′-(3,5-dimethoxybenzylidene)-6-methoxypyrazine-2-carbohydrazide] | > 1000 nM | > 10000 nM
17 | COc1cc(/C=N/NC(=O)c2nccnc2OC)cc(OC)c1 [Compound 141, (E)-N′-(3,5-dimethoxybenzylidene)-3-methoxypyrazine-2-carbohydrazide] | > 1000 nM | > 10000 nM
18 | COc1cc(/C=N/NC(=O)c2cnc(OC)cn2)cc(OC)c1 [Compound 142, (E)-N′-(3,5-dimethoxybenzylidene)-5-methoxypyrazine-2-carbohydrazide] | > 1000 nM | > 10000 nM
19 | CCOc1ccc(-c2cnc(C)c(C(=O)N/N=C/c3cc(OC)cc(OC)c3)n2)cc1 [Compound 143, (E)-N′-(3,5-dimethoxybenzylidene)-6-(4-ethoxyphenyl)-3-methylpyrazine-2-carbohydrazide] | 650 nM | 5150 nM
20 | CCOc1ccc(-c2cnc(CC)c(C(=O)N/N=C/c3cc(OC)cc(OC)c3)n2)cc1 [Compound 144, (E)-N′-(3,5-dimethoxybenzylidene)-6-(4-ethoxyphenyl)-3-ethylpyrazine-2-carbohydrazide] | > 300 nM | > 300 nM
21 | CCOc1ccc(-c2cnc(OC)c(C(=O)N/N=C/c3cc(OC)cc(OC)c3)n2)cc1 [Compound 145, (E)-N′-(3,5-dimethoxybenzylidene)-6-(4-ethoxyphenyl)-3-methoxypyrazine-2-carbohydrazide] | > 300 nM | > 300 nM
22 | CCOc1ccc(-c2cnc(Oc3ccccc3)c(C(=O)N/N=C/c3cc(OC)cc(OC)c3)n2)cc1 [Compound 146, (E)-N′-(3,5-dimethoxybenzylidene)-6-(4-ethoxyphenyl)-3-phenoxypyrazine-2-carbohydrazide] | > 300 nM | > 300 nM
23 | CCOc1ccc(-c2cnc(-c3ccccc3)c(C(=O)N/N=C/c3cc(OC)cc(OC)c3)n2)cc1 [Compound 147, (E)-N′-(3,5-dimethoxybenzylidene)-6-(4-ethoxyphenyl)-3-phenylpyrazine-2-carbohydrazide] | > 300 nM | > 300 nM
24 | COc1cc(/C=N/NC(=O)c2cncc(-c3ccc(OCSC)cc3)n2)cc(OC)c1 [Compound 149, (E)-N′-(3,5-dimethoxybenzylidene)-6-(4-((methylthio)methoxy)phenyl)pyrazine-2-carbohydrazide] | 60.9 nM | 123 nM
25 | Cc1cc(C)cc(/C=N/NC(=O)c2cncc(-c3ccc(OC4CCCC4)cc3)n2)c1 [Compound 150, (E)-6-(4-(cyclopentyloxy)phenyl)-N′-(3,5-dimethylbenzylidene)pyrazine-2-carbohydrazide] | 118 nM | 121 nM
26 | COc1cc(/C=N/NC(=O)c2cncc(-c3ccc(OCCN(C)C)cc3)n2)cc(OC)c1 [Compound 151, (E)-N′-(3,5-dimethoxybenzylidene)-6-(4-(2-(dimethylamino)ethoxy)phenyl)pyrazine-2-carbohydrazide] | > 1000 nM | > 10000 nM
27 | COc1cc(/C=N/NC(=O)c2cncc(-c3ccc(OCC4CC4)cc3)n2)cc(OC)c1 [Compound 152, (E)-6-(4-(cyclopropylmethoxy)phenyl)-N′-(3,5-dimethoxybenzylidene)pyrazine-2-carbohydrazide] | 88.4 nM | 138 nM
28 | CCOc1ccc(-c2cncc(C(=O)N/N=C/c3cccc(OC)c3)n2)c(OCC)c1 [Compound 153, (E)-6-(2,4-diethoxyphenyl)-N′-(3-methoxybenzylidene)pyrazine-2-carbohydrazide] | 121 nM | 228 nM

From patent US20240335442A1 (Eurofarma Laboratórios S.A., priority 2021, published 2024)
